In patent US9023865B2, “Compounds that are ERK inhibitors” (Merck Sharp & Dohme Corp., priority 2011, dated 2015):
pIC50: −log10 of the molar value.

Each molecule was assayed against Active Human ERK2 (hERK2) (Homo sapiens (Human), UniProt P28482) (assay: Active Human ERK2 (hERK2) Activity Assay (IMAP-FP)). Conditions: phosphorylated active hERK2, 30 μM ATP; average; read-out: ERK 2 Human average IC50.
Type: biochemical
Description: Assays Active Human ERK2 (hERK2) Activity Assay:
Activated ERK2 activity was determined in an IMAP-FP assay (Molecular Devices). […] The final reaction in each well of 25 μL consists of 0.5 nM hERK2, 900 nM unlabeled peptide, 80 nM labeled-peptide, and 30 μM ATP. Phosphorylation reactions were allowed to proceed for 60 minutes and were immediately quenched by the addition of […] IMAP detection beads (1:1000 dilutions) in IMAP binding buffer (Molecular Devices) with 24 mM NaCl. Plates were read on EnVision reader after 60 minutes binding equilibration using Fluorescence Polarization protocol (Perkin Elmer).

Active Human ERK2 (hERK2), sequence (P28482 whole entry): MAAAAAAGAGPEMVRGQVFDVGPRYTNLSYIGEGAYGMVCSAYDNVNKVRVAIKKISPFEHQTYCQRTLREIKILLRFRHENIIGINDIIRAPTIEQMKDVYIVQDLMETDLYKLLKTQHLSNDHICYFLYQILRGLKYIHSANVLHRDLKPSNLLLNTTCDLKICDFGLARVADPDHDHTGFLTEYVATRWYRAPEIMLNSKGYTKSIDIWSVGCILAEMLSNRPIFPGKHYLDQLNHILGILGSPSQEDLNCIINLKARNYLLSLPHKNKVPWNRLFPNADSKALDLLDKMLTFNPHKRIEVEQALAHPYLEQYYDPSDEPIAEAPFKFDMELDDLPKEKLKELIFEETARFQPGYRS

pIC50	SMILES
7.63	O=C(NCc1ccc(F)cc1)Nc1cc2[nH]nc(C3CC3)c2cn1 [Example 140, 1-(3-cyclopropyl-1H-pyrazolo[4,3-c]pyridin-6-yl)-3-(4-fluorobenzyl)urea]
8.61	C[C@@H](NC(=O)Nc1cc2[nH]nc(C3CC3)c2cn1)c1ccc(F)cc1 [Example 141]
8.46	C[C@@H](NC(=O)Nc1cc2[nH]nc(C3CCC3)c2cn1)c1ccc(F)cc1 [Example 144]
7.89	O=C(NCc1ccc(F)cc1)Nc1cc2[nH]nc(C3CCC3)c2cn1 [Example 146]
7.14	C[C@@H](NC(=O)Nc1cc2[nH]nc(C3CCC3)c2cn1)c1ccccn1 [Example 149]
6.93	C[C@@H](NC(=O)Nc1cc2[nH]nc(C3CC3)c2cn1)c1ccccn1 [Example 152]
8.64	O=C(Nc1cc2[nH]nc(C3CC3)c2cn1)NC1CCCOc2ccccc21 (stereo not shown) [Example 153]
7.16	O=C(Nc1cc2[nH]nc(C3CC3)c2cn1)N[C@@H]1CCOc2ccccc21 [Example 154]
7.22	COc1ccc(CNC(=O)Nc2cc3[nH]nc(C4CC4)c3cn2)cc1 [Example 155]
8.05	C[C@@H](NC(=O)Nc1cc2[nH]nc(C3CC3(F)F)c2cn1)c1ccc(F)cc1 (stereo partly shown) [Example 165]
6.93	COC[C@@H](NC(=O)Nc1cc2[nH]nc(C3CC3)c2cn1)c1cc(F)ccn1 [Example 168]
8.13	COC[C@@H](NC(=O)Nc1cc2[nH]nc(-c3ccnc(C)c3)c2cn1)c1cc(F)ccn1 [Example 169]
6.61	Cc1cc(-c2n[nH]c3cc(NC(=O)N[C@@H](CN)c4ccccc4)ncc23)ccn1 [Example 172]
8.80	Cc1cc(-c2n[nH]c3c(C)c(NC(=O)N[C@H](C)c4ccccc4)ncc23)ccn1 [Example 174, (R)-1-(7-Methyl-3-(2-methylpyridin-4-yl)-1H-pyrazolo[4,3-c]pyridin-6-yl)-3-(1-phenylethyl)urea]
8.17	CCc1c(NC(=O)N[C@H](C)c2ccccc2)ncc2c(-c3ccnc(C)c3)n[nH]c12 [Example 175]
7.39	Cc1cc(-c2n[nH]c3cc(NC(=O)N[C@@H](C)c4ccccn4)ncc23)ccn1 [Example 176]
9.04	Cc1cc(-c2n[nH]c3cc(NC(=O)N[C@H](C)c4ccccn4)ncc23)ccn1 [Example 177]
9.28	Cc1cc(-c2n[nH]c3cc(NC(=O)N[C@H]4CN(C)C[C@@H]4c4ccccc4C(F)(F)F)ncc23)ccn1 [Example 178, 1-((3R,4S)-1-Methyl-4-(2-(trifluoromethyl)phenyl)pyrrolidin-3-yl)-3-(3-(2-methylpyridin-4-yl)-1H-pyrazolo[4,3-c]pyridin-6-yl)urea]
8.84	Cc1cc(-c2n[nH]c3cc(NC(=O)N[C@H]4CN(C)C[C@@H]4c4ccc(F)nc4)ncc23)ccn1 [Example 179]

pIC50	SMILES
8.34	Cc1cc(-c2n[nH]c3cc(NC(=O)N[C@@H]4CNC[C@@H]4c4ccccc4)ncc23)ccn1 [Example 180]
9.66	Cc1cc(-c2n[nH]c3cc(NC(=O)N[C@@H]4CN(C)C[C@H]4c4ccccc4)ncc23)ccn1 [Example 181]
7.73	Cc1cc(-c2n[nH]c3cc(NC(=O)N[C@H]4CN(C)C[C@@H]4c4ccccc4)ncc23)ccn1 [Example 182]
9.18	Cc1cc(-c2n[nH]c3cc(NC(=O)N[C@H]4CN(C)C[C@@H]4c4ccccc4F)ncc23)ccn1 [Example 183]
9.77	Cc1cc(-c2n[nH]c3cc(NC(=O)N[C@@H]4CN(C)C[C@H]4c4ccccc4F)ncc23)ccn1 [Example 184]
7.43	Cc1cc(-c2n[nH]c3cc(NC(=O)N[C@H]4CN(C)C[C@@H]4c4ccccc4F)ncc23)ccn1 [Example 185]
7.36	CNC(=O)CNC(=O)Nc1cc2[nH]nc(-c3ccnc(C)c3)c2cn1 [Example 186]
7.28	Cc1cc(-c2n[nH]c3cc(NC(=O)NCC(=O)N(C)C)ncc23)ccn1 [Example 187]
7.82	Cc1cc(-c2n[nH]c3cc(NC(=O)N[C@H]4COC[C@@H]4O)ncc23)ccn1 [Example 188]
7.99	Cc1cc(-c2n[nH]c3cc(NC(=O)NCC(O)C(F)F)ncc23)ccn1 (stereo not shown) [Example 189]
8.42	Cc1cc(-c2n[nH]c3cc(NC(=O)NCC(F)(F)CO)ncc23)ccn1 [Example 190]
7.75	CC1=NOC(CNC(=O)Nc2cc3[nH]nc(-c4ccnc(C)c4)c3cn2)C1 (stereo not shown) [Example 191]
7.66	CC1=NOC(C)(CNC(=O)Nc2cc3[nH]nc(-c4ccnc(C)c4)c3cn2)C1 (stereo not shown) [Example 192]
6.90	Cc1cc(-c2n[nH]c3cc(NC(=O)NCC4(N(C)C)CCC4)ncc23)ccn1 [Example 193]
7.87	Cc1cc(-c2n[nH]c3cc(NC(=O)NC(CO)C(F)(F)F)ncc23)ccn1 (stereo not shown) [Example 194]
8.09	Cc1cc(-c2n[nH]c3cc(NC(=O)NCC(O)C(F)(F)F)ncc23)ccn1 (stereo not shown) [Example 195]
7.63	Cc1cc(-c2n[nH]c3cc(NC(=O)NC4CCOC(C)(C)C4)ncc23)ccn1 (stereo not shown) [Example 196]
7.27	CNC1(CNC(=O)Nc2cc3[nH]nc(-c4ccnc(C)c4)c3cn2)CCOC1 (stereo not shown) [Example 197]
8.23	Cc1cc(-c2n[nH]c3cc(NC(=O)NCC4CN(C)CCO4)ncc23)ccn1 (stereo not shown) [Example 198]

Continued, molecule first:

SMILES	pIC50
C[C@@H](NC(=O)Nc1cc2[nH]nc(C(=O)NCC(F)(F)CN3CCOCC3)c2cn1)c1ccccc1 [Example 125]	8.18
C[C@@H](NC(=O)Nc1cc2[nH]nc(C(=O)NCCC3(O)CCCC3)c2cn1)c1ccccc1 [Example 126]	8.08
C[C@@H](NC(=O)Nc1cc2[nH]nc(C(=O)NCC34CC5CC(C3)C(O)C(C5)C4)c2cn1)c1ccccc1 (stereo partly shown) [Example 127]	7.83
C[C@@H](NC(=O)Nc1cc2[nH]nc(C(=O)NCC(F)(F)CN3CCCC3)c2cn1)c1ccccc1 [Example 128]	7.72
C[C@@H](NC(=O)Nc1cc2[nH]nc(C(=O)NCC3CCN(C4CC4)C3)c2cn1)c1ccccc1 (stereo partly shown) [Example 129]	7.87
CO[C@H]1CN(C(=O)c2n[nH]c3cc(NC(=O)N[C@H](C)c4ccccc4)ncc23)C[C@@H]1O [Example 130]	5.71
COC(C)CNC(=O)c1n[nH]c2cc(NC(=O)N[C@H](C)c3ccccc3)ncc12 (stereo partly shown) [Example 131]	7.87
C[C@@H](NC(=O)Nc1cc2[nH]nc(C(=O)NCC3CCCC(O)C3)c2cn1)c1ccccc1 (stereo partly shown) [Example 132]	8.50
COCC(O)CNC(=O)c1n[nH]c2cc(NC(=O)N[C@H](C)c3ccccc3)ncc12 (stereo partly shown) [Example 133]	7.96
C[C@@H](NC(=O)Nc1cc2[nH]nc(C(=O)N[C@@H]3CCN(O)C3=O)c2cn1)c1ccccc1 [Example 134]	6.99
CC(C)CC(O)CNC(=O)c1n[nH]c2cc(NC(=O)N[C@H](C)c3ccccc3)ncc12 (stereo partly shown) [Example 135]	7.83
C[C@@H](NC(=O)Nc1cc2[nH]nc(C(=O)NCC3(O)CCC3)c2cn1)c1ccccc1 [Example 136]	7.92
CNC(=O)c1n[nH]c2cc(NC(=O)N[C@H](C)c3ccccc3)ncc12 [Example 137]	8.34
CCNC(=O)c1n[nH]c2cc(NC(=O)N[C@H](C)c3ccccc3)ncc12 [Example 138]	8.28
C[C@@H](NC(=O)Nc1cc2[nH]nc(C(=O)N(C)C)c2cn1)c1ccccc1 [Example 139]	6.24
O=C(NCc1ccccc1)Nc1cc2[nH]nc(C3CC3)c2cn1 [Example 142]	7.76

SMILES	pIC50
CCCCNC(=O)Nc1cc2[nH]nc(C3CCC3)c2cn1 [Example 143, 1-butyl-3-(3-cyclobutyl-1H-pyrazolo[4,3-c]pyridin-6-yl)urea]	7.40
C[C@@H](NC(=O)Nc1cc2[nH]nc(C3CCC3)c2cn1)c1ccccc1 [Example 145]	8.61
O=C(NCc1ccccc1)Nc1cc2[nH]nc(C3CCC3)c2cn1 [Example 147]	7.95
O=C(NCC1CC1)Nc1cc2[nH]nc(C3CC3)c2cn1 [Example 148]	7.07
C[C@@H](NC(=O)Nc1cc2[nH]nc(C3CC3)c2cn1)c1ccc(Cl)cc1 [Example 150]	7.98
C[C@@H](NC(=O)Nc1cc2[nH]nc(C3CCC3)c2cn1)c1ccc(Cl)cc1 [Example 151]	7.95
CCCCNC(=O)Nc1cc2[nH]nc(C3CC3)c2cn1 [Example 156]	7.37
CCNC(=O)Nc1cc2[nH]nc(C3CC3)c2cn1 [Example 157]	6.60
C[C@@H](NC(=O)Nc1cc2[nH]nc(C3(C)CC3(F)F)c2cn1)c1ccc(F)cc1 (stereo partly drawn) [Example 159, 1-[3-(2,2-difluoro-1-methylcyclopropyl)-1H-pyrazolo[4,3-c]pyridin-6-yl]-3-[(1R)-1-(4-fluorophenyl)ethyl]urea]	6.21
COC[C@@H](NC(=O)Nc1cc2[nH]nc(C3CC3)c2cn1)c1ccccc1 [Example 160]	8.86
[2H]C([2H])([2H])OC[C@@H](NC(=O)Nc1cc2[nH]nc(C3CC3)c2cn1)c1ccccc1 [Example 161]	8.24
COC[C@@H](NC(=O)Nc1cc2[nH]nc(C3CC3(F)F)c2cn1)c1ccccc1 (stereo partly shown) [Example 163]	8.31
C[C@@H](NC(=O)Nc1cc2[nH]nc(C3CC3(F)F)c2cn1)c1ccccc1 (stereo partly shown) [Example 164]	8.11
CCNC(=O)[C@H]1C[C@@H]1c1n[nH]c2cc(NC(=O)N[C@H](COC)c3ccccc3)ncc12 [Example 170, (1S,2S)—N-ethyl-2-(6-(3-((S)-2-methoxy-1-phenylethyl)ureido)-1H-pyrazolo[4,3-c]pyridin-3-yl)cyclopropanecarboxamide]	9.15
CNC(=O)[C@H]1CC1c1n[nH]c2cc(NC(=O)N[C@H](COC)c3ccccc3)ncc12 (stereo partly shown) [Example 171]	9.01
CCOC(=O)CCc1n[nH]c2cc(NC(=O)NCc3ccccc3)ncc12 [Example 173, Ethyl 3-(6-(3-benzylureido)-1H-pyrazolo[4,3-c]pyridin-3-yl)propanoate]	7.40
